In patent US10952390B2, “Catnip cultivar ‘CR3’” (Rutgers, The State University of New Jersey, priority 2016, dated 2021):

Experiments:
Type in all cases: in vivo
Anopholes gambiae = test: one-choice mosquito landing rate inhibition assay
Procedure: (§1) The clonal population serving as source material for the essential oil was the ‘CR3’ cultivar. The hydro-distilled essential oil from this population was used as the source for the crude essential oil treatment and was partitioned for subsequent fractionation and nepetalactone purification. The clones were transplanted to the field. Immediately before the plants were in full flower, they were harvested and dried at 37° C. with an onsite Powell walk-in forced air heat dryer kept under low heat conditions. Once the plants had lost all moisture, under the temperature and pressure conditions, the leaves and flowers were separated from the stems for hydro-distillation. Essential oils were extracted by hydro-distilling 60 g of dried N. cataria leaves and flowers. They were distilled in a 2 L round bottom flask for 3 hours in 1 L of water and the essential oil was collected in a Clevenger-type trap. The essential oils were then prepared and analyzed by GC/MS. The CR3 essential oil contained about 29% Z, E-nepetalactone and about 59% E, Z-nepetalactone (% of the total essential oil).
(§2) Repellency was determined by a one-choice landing assay that uses the amount of mosquito landings to calculate the overall effectiveness of the candidate repellent. […] Time lapse photography recorded one image every five seconds. […]

Ixodes scapularis = test: one-choice tick filter paper repellency assay (petri dish arena); conditions: I. scapularis, 15 minutes, three replicates
Procedure: (§3) An arena was constructed out of petri dishes to establish a dose response curve of a repellent ('CR3′ essential oil or DEET) filter paper by monitoring the total amount of tick positions over 15 minutes (1 image every 15 sec) and calculating percent repellency. ‘CR3’ oils were extracted with acetone as described in Example 3. In a one-choice assay, the repellent was applied to half of the filter paper and placed into the petri dish where the ticks are placed, the petri dish cover applied, and the number of ticks counted applied to the repellent zone. In the two-choice repellency test (see FIG. 6), DEET and a repellent (‘CR3’ essential oil) were applied to different sides of the filter paper and the ticks are counted in reference to the test repellent, not DEET. Total Tick positions=(# ticks in petri dish)×(60 images) Percent repellency=[(# of ticks in the repellent zone)/(Total Tick positions)]*100 Three replicates were performed for each treatment. Complete repellency was defined as repelling greater than 95% of the ticks.

Dermacentor variabilis = test: as above; conditions: D. variabilis, 15 minutes, three replicates
Procedure: as §3

Aedes aegypti = test: one-choice mosquito landing rate inhibition assay
Procedure: as §1, with “oil). […]” for “oil).”
as §2

[1] = 0.01% of the treatment applied to the filter paper

`CCN(CC)C(=O)c1cccc(C)c1` [DEET] was tested, and the “reduction of A. gambiae landing” value (Anopholes gambiae; [1]) was “about 35%”, the “decrease of mosquito landings (repellency)” value (Anopholes gambiae; A. gambiae, treatment at 1% on filter paper) was over 95% and the percent repellency (Ixodes scapularis; applied at 0.1%) was 59.16±8.94. It also gave a percent repellency (Ixodes scapularis; applied at 1%) of 99.79±0.36, a percent repellency (Dermacentor variabilis; applied at 0.1%) of 86.06±10.2 and a percent repellency (Dermacentor variabilis; applied at 1%) of 99.31±1.00. The “reduction of A. aegypti landing” value (Aedes aegypti; [1]) was “about 32%” and the “decrease of mosquito landings (repellency)” value (Aedes aegypti; A. aegypti, treatment at 1% on filter paper) was over 95%.
